ChEMBL document CHEMBL5303304, “EUbOPEN Chemogenomics Library - IncuCyte” (2023)

Legend:
Format in all cases: toxicity, cell-based
Fibroblast = assay: Incucyte cell viability with human fibroblast; details: 10 µM, compound concentration 10 uM
U2OS = assay: Incucyte cell viability with U2OS; details: human, 10 µM, compound concentration 10 uM
HEK-293T = assay: Incucyte cell viability with HEK293T; details: human, 10 µM, compound concentration 10 uM
Also: unitless GR value; below 1 slowed growth and below 0 cell loss.

Row | Compound | Growth Rate (Fibroblast; 0 h, replicate number 2) | Growth Rate (Fibroblast; 6 h, replicate number 2) | Growth Rate (Fibroblast; 12 h, replicate number 1) | Growth Rate (Fibroblast; 18 h, replicate number 2) | Growth Rate (U2OS; 0 h, replicate number 1) | Growth Rate (U2OS; 6 h, replicate number 2) | Growth Rate (U2OS; 12 h, replicate number 1) | Growth Rate (U2OS; 12 h, replicate number 2) | Growth Rate (U2OS; 18 h, replicate number 1) | Growth Rate (U2OS; 18 h, replicate number 2) | Growth Rate (U2OS; 24 h, replicate number 2) | Growth Rate (HEK-293T; 0 h, replicate number 1) | Growth Rate (HEK-293T; 0 h, replicate number 2) | Growth Rate (HEK-293T; 12 h, replicate number 2) | Growth Rate (Fibroblast; 0 h, replicate number 1) | Growth Rate (U2OS; 6 h, replicate number 1) | Growth Rate (U2OS; 24 h, replicate number 1) | Growth Rate (HEK-293T; 6 h, replicate number 2) | Growth Rate (Fibroblast; 6 h, replicate number 1) | Growth Rate (Fibroblast; 18 h, replicate number 1) | other results
1 | O=C(O)CNC(=O)c1c(O)c2ccccc2n(Cc2ccccc2)c1=O | 0.56 | 0.61 | 0.75 | 0.94 | 0.29 | 0.74 | 0.92 | 0.94 | 0.86 | 0.9 | 0.97 | -0.08 | -0.1 | 0.91 |  |  |  |  |  |  | Growth Rate (Fibroblast; 12 h, replicate number 2): 0.68; Growth Rate (U2OS; 0 h, replicate number 2): 0.34; Growth Rate (HEK-293T; 18 h, replicate number 2): 0.99; Growth Rate (HEK-293T; 24 h, replicate number 2): 0.93
2 | N#Cc1cccc(-c2c[nH]c3ncnc(N4CCOCC4)c23)c1 | -0.76 |  |  |  |  |  | 0.88 |  | 0.31 | 0.94 | 0.98 | -0.86 |  |  | -0.42 | 0.91 | 0.97 |  |  |  | 
3 | Nc1nccc(-c2c(-c3ccc(F)cc3)ncn2C2CCN(Cc3ccon3)CC2)n1 | -0.11 |  |  |  |  | 0.8 |  | 0.75 |  | 0.72 | 0.66 | 0.09 |  |  |  | 0.99 |  | 0.91 |  |  | 
4 | Clc1ccc(-c2nc3sccn3c2/C=N/OCc2ccc(Cl)c(Cl)c2)cc1 | 0.32 |  | 0.58 |  | 0.48 | 0.91 | 0.92 | 0.89 | 0.87 | 0.95 | 0.93 | -0.74 | -0.64 | 1 |  |  |  | 1 | 0.02 | 0.63 | Growth Rate (Fibroblast; 24 h, replicate number 1): 0.85
5 | CCOP(=O)(OCC)C(=Cc1cc(C(C)(C)C)c(O)c(C(C)(C)C)c1)P(=O)(OCC)OCC | 0.24 | 0.08 | 0.78 | 0.7 |  | 0.36 |  | 0.63 |  | 0.75 | 0.77 | 0.16 | -0.99 | 0.55 |  |  |  | 0.25 | 0.57 | 0.39 | Growth Rate (Fibroblast; 24 h, replicate number 1): 0.61; Growth Rate (U2OS; 0 h, replicate number 2): 0.17; Growth Rate (HEK-293T; 18 h, replicate number 1): 0.94; Growth Rate (HEK-293T; 18 h, replicate number 2): 0.79; Growth Rate (HEK-293T; 24 h, replicate number 2): 0.95
6 | CN(C)[C@H]1C[C@H](n2cnc(-c3ccc(F)cn3)c2-c2ccnc3[nH]ccc23)C1 | 0.15 |  | 0.89 |  | 0.83 | 0.94 |  | 0.81 |  | 0.94 | 0.85 | 0.9 | -0.95 |  |  |  |  | 0.95 |  | 0.84 | 
7 | C[C@H](CCOc1cccc(CC(=O)O)c1)N(Cc1cccc(C(F)(F)F)c1Cl)CC(c1ccccc1)c1ccccc1.Cl |  | 0.01 | 0.72 | 0.23 | 0.53 | 1 |  |  | 0.83 |  |  | -0.43 |  |  | 0.93 | 0.93 | 0.93 |  | 0.72 | 0.83 | Growth Rate (Fibroblast; 12 h, replicate number 2): 0.55; Growth Rate (Fibroblast; 24 h, replicate number 1): 0.64; Growth Rate (Fibroblast; 24 h, replicate number 2): 0.52; Growth Rate (U2OS; 0 h, replicate number 2): -0.96; Growth Rate (HEK-293T; 18 h, replicate number 2): 1
8 | CN(C)c1ncc2cc(-c3ccc(-c4ncccc4F)cc3Cl)c(=O)n(C[C@H]3OC[C@H](N)CO3)c2n1 | -0.89 |  |  |  |  |  |  | 0.96 |  | 0.99 |  | -1 |  |  | -0.2 |  |  |  |  |  | 
9 | CN1CCC(F)(Cn2cnc(-c3ccc(F)cn3)c2-c2ccnc3[nH]ccc23)CC1 |  | 0.29 | 0.6 | 0.68 | 0.97 | 0.77 | 0.8 | 0.87 | -0.61 | 0.94 | 0.68 | 0.3 | -0.77 | 0.86 |  | 0.99 | 0.84 | 0.85 | -0.23 | 0.66 | Growth Rate (Fibroblast; 12 h, replicate number 2): 0.78; Growth Rate (Fibroblast; 24 h, replicate number 1): 0.81; Growth Rate (Fibroblast; 24 h, replicate number 2): 0.8; Growth Rate (HEK-293T; 6 h, replicate number 1): 0.99; Growth Rate (HEK-293T; 18 h, replicate number 1): 0.93; Growth Rate (HEK-293T; 24 h, replicate number 1): 0.9; Growth Rate (HEK-293T; 24 h, replicate number 2): 0.74
10 | COc1cc(-c2cn[nH]c2)ccc1C(=O)Nc1ccc2c(c1)CCNCC2.Cl | 0.05 |  |  |  |  | 0.77 | 0.82 | 0.78 | 0.75 | 0.59 | 0.63 | -0.67 |  |  | 0.68 |  | 0.87 |  |  |  | 
